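Method: 48-hour compound exposure of cells in 96-well plates, five concentrations, linear interpolation of endpoints. GI50 = concentration required for 50% inhibition of growth. TGI marks complete inhibition of growth.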
How the values were obtained:
Test in all cases: inhibition of tumour cell growth, NCI panel, 48 h
786-0 renal = tested on: 786-0 renal
A498 renal = tested on: A498 renal
A549 NSCLC = tested on: A549 NSCLC
ACHN renal = tested on: ACHN renal
CAKI-1 renal = tested on: CAKI-1 renal
CCRF-CEM leukemia = tested on: CCRF-CEM leukemia
COLO 205 colon = tested on: COLO 205 colon
DU-145 prostate = tested on: DU-145 prostate
EKVX NSCLC = tested on: EKVX NSCLC
HCC-2998 colon = tested on: HCC-2998 colon
HCT-116 colon = tested on: HCT-116 colon
HCT-15 colon = tested on: HCT-15 colon
HL-60(TB) leukemia = tested on: HL-60(TB) leukemia
HOP-62 NSCLC = tested on: HOP-62 NSCLC
HOP-92 NSCLC = tested on: HOP-92 NSCLC
HT29 colon = tested on: HT29 colon
IGROV1 ovarian = tested on: IGROV1 ovarian
K-562 leukemia = tested on: K-562 leukemia
KM12 colon = tested on: KM12 colon
LOX IMVI melanoma = tested on: LOX IMVI melanoma
M14 melanoma = tested on: M14 melanoma
MCF7 breast = tested on: MCF7 breast
MDA-MB-231 breast = tested on: MDA-MB-231 breast
MDA-MB-435 = tested on: MDA-MB-435
MDA-N = tested on: MDA-N
MOLT-4 leukemia = tested on: MOLT-4 leukemia
NCI-H226 lung = tested on: NCI-H226 lung
NCI-H23 lung = tested on: NCI-H23 lung
NCI-H460 lung = tested on: NCI-H460 lung
NCI-H522 lung = tested on: NCI-H522 lung
NCI/ADR-RES ovarian = tested on: NCI/ADR-RES ovarian
OVCAR-3 ovarian = tested on: OVCAR-3 ovarian
OVCAR-4 ovarian = tested on: OVCAR-4 ovarian
OVCAR-5 ovarian = tested on: OVCAR-5 ovarian
OVCAR-8 ovarian = tested on: OVCAR-8 ovarian
PC-3 prostate = tested on: PC-3 prostate
RPMI-8226 leukemia = tested on: RPMI-8226 leukemia
SF-268 CNS = tested on: SF-268 CNS
SF-295 CNS = tested on: SF-295 CNS
SK-MEL-2 melanoma = tested on: SK-MEL-2 melanoma
SK-MEL-28 melanoma = tested on: SK-MEL-28 melanoma
SK-MEL-5 melanoma = tested on: SK-MEL-5 melanoma
SK-OV-3 ovarian = tested on: SK-OV-3 ovarian
SN12C renal = tested on: SN12C renal
SNB-19 CNS = tested on: SNB-19 CNS
SNB-75 CNS = tested on: SNB-75 CNS
SR leukemia = tested on: SR leukemia
SW-620 colon = tested on: SW-620 colon
T-47D breast = tested on: T-47D breast
TK-10 renal = tested on: TK-10 renal
U251 CNS = tested on: U251 CNS
UACC-257 melanoma = tested on: UACC-257 melanoma
UACC-62 melanoma = tested on: UACC-62 melanoma
UO-31 renal = tested on: UO-31 renal
BT-549 breast = tested on: BT-549 breast
SF-539 CNS = tested on: SF-539 CNS
HS 578T breast = tested on: HS 578T breast
MALME-3M melanoma = tested on: MALME-3M melanoma
RXF 393 renal = tested on: RXF 393 renal

## C[C@@H](NC(=O)OC1C=CC2(CC1)C(=O)N(C)c1ccccc12)c1cccc2ccccc12 (stereo partly drawn)
786-0 renal
  TGI: > 25 µM
A498 renal
  TGI: > 25 µM
A549 NSCLC
  TGI: > 25 µM
ACHN renal
  TGI: > 25 µM
CAKI-1 renal
  TGI: > 25 µM
CCRF-CEM leukemia
  TGI: > 25 µM
COLO 205 colon
  TGI: > 25 µM
DU-145 prostate
  TGI: > 25 µM
EKVX NSCLC
  TGI: > 25 µM
HCC-2998 colon
  TGI: > 25 µM
HCT-116 colon
  TGI: > 25 µM
HCT-15 colon
  TGI: > 25 µM
HL-60(TB) leukemia
  TGI: 14.7 µM
HOP-62 NSCLC
  TGI: > 25 µM
HOP-92 NSCLC
  TGI: > 25 µM
HT29 colon
  TGI: > 25 µM
IGROV1 ovarian
  TGI: > 25 µM
K-562 leukemia
  TGI: > 25 µM
KM12 colon
  TGI: > 25 µM
LOX IMVI melanoma
  TGI: > 25 µM
M14 melanoma
  TGI: > 25 µM
MCF7 breast
  TGI: > 25 µM
MDA-MB-231 breast
  TGI: > 25 µM
MDA-MB-435
  TGI: > 25 µM
MDA-N
  TGI: > 25 µM
MOLT-4 leukemia
  TGI: > 25 µM
NCI-H226 lung
  TGI: > 25 µM
NCI-H23 lung
  TGI: > 25 µM
NCI-H460 lung
  TGI: > 25 µM
NCI-H522 lung
  TGI: > 25 µM
NCI/ADR-RES ovarian
  TGI: > 25 µM
OVCAR-3 ovarian
  TGI: > 25 µM
OVCAR-4 ovarian
  TGI: > 25 µM
OVCAR-5 ovarian
  TGI: > 25 µM
OVCAR-8 ovarian
  TGI: > 25 µM
PC-3 prostate
  TGI: > 25 µM
RPMI-8226 leukemia
  TGI: > 25 µM
SF-268 CNS
  TGI: > 25 µM
SF-295 CNS
  TGI: > 25 µM
SK-MEL-2 melanoma
  TGI: > 25 µM
SK-MEL-28 melanoma
  TGI: > 25 µM
SK-MEL-5 melanoma
  TGI: > 25 µM
SK-OV-3 ovarian
  TGI: > 25 µM
SN12C renal
  TGI: > 25 µM
SNB-19 CNS
  TGI: > 25 µM
SNB-75 CNS
  TGI: > 25 µM
SR leukemia
  TGI: > 25 µM
SW-620 colon
  TGI: > 25 µM
T-47D breast
  TGI: > 25 µM
TK-10 renal
  TGI: > 25 µM
U251 CNS
  TGI: > 25 µM
UACC-257 melanoma
  TGI: > 25 µM
UACC-62 melanoma
  TGI: > 25 µM
UO-31 renal
  TGI: > 25 µM

## OCC1OC(n2nc(-c3ccccc3)nc2-c2cnccn2)C(O)C1O (stereo not drawn)
786-0 renal
  TGI: > 100 µM
A549 NSCLC
  TGI: > 100 µM
BT-549 breast
  TGI: > 100 µM
CCRF-CEM leukemia
  TGI: > 100 µM
COLO 205 colon
  TGI: > 100 µM
DU-145 prostate
  TGI: > 100 µM
EKVX NSCLC
  TGI: > 100 µM
HCC-2998 colon
  TGI: > 100 µM
HCT-116 colon
  TGI: > 100 µM
HCT-15 colon
  TGI: > 100 µM
HL-60(TB) leukemia
  TGI: > 100 µM
HOP-62 NSCLC
  TGI: > 100 µM
HOP-92 NSCLC
  TGI: > 100 µM
HT29 colon
  TGI: > 100 µM
IGROV1 ovarian
  TGI: > 100 µM
K-562 leukemia
  TGI: > 100 µM
KM12 colon
  TGI: > 100 µM
LOX IMVI melanoma
  TGI: > 100 µM
M14 melanoma
  TGI: > 100 µM
MCF7 breast
  TGI: > 100 µM
MDA-MB-231 breast
  TGI: > 100 µM
MDA-MB-435
  TGI: > 100 µM
MDA-N
  TGI: > 100 µM
MOLT-4 leukemia
  TGI: > 100 µM
NCI-H23 lung
  TGI: > 100 µM
NCI-H460 lung
  TGI: > 100 µM
NCI-H522 lung
  TGI: > 100 µM
NCI/ADR-RES ovarian
  TGI: > 100 µM
OVCAR-3 ovarian
  TGI: > 100 µM
OVCAR-4 ovarian
  TGI: > 100 µM
OVCAR-5 ovarian
  TGI: > 100 µM
OVCAR-8 ovarian
  TGI: > 100 µM
PC-3 prostate
  TGI: > 100 µM
SF-268 CNS
  TGI: > 100 µM
SF-295 CNS
  TGI: > 100 µM
SF-539 CNS
  TGI: > 100 µM
SK-MEL-28 melanoma
  TGI: > 100 µM
SK-MEL-5 melanoma
  TGI: > 100 µM
SK-OV-3 ovarian
  TGI: > 100 µM
SN12C renal
  TGI: > 100 µM
SNB-19 CNS
  TGI: > 100 µM
SNB-75 CNS
  TGI: > 100 µM
SW-620 colon
  TGI: > 100 µM
T-47D breast
  TGI: > 100 µM
TK-10 renal
  TGI: > 100 µM
U251 CNS
  TGI: > 100 µM
UACC-257 melanoma
  TGI: > 100 µM
UACC-62 melanoma
  TGI: > 100 µM
UO-31 renal
  TGI: > 100 µM

## CCOC(=O)c1c(C)n2c(=O)cc(C)c3c(OC(C)=O)c(OC(C)=O)cc1c32
786-0 renal
  GI50: 3.75 µM
A498 renal
  GI50: 14 µM
  TGI: 52.1 µM
A549 NSCLC
  GI50: 5.86 µM
  TGI: 52.3 µM
ACHN renal
  GI50: 4.89 µM
  TGI: > 71.5 µM
BT-549 breast
  GI50: 6.21 µM
  TGI: 46.1 µM
CAKI-1 renal
  GI50: 6.37 µM
  TGI: > 65.9 µM
CCRF-CEM leukemia
  GI50: 1.44 µM
  TGI: 6.45 µM
COLO 205 colon
  GI50: 4.62 µM
  TGI: 18.7 µM
DU-145 prostate
  GI50: 6.33 µM
  TGI: 22.2 µM
EKVX NSCLC
  GI50: 4.96 µM
  TGI: 17.8 µM
HCC-2998 colon
  GI50: 2.45 µM
  TGI: 15.8 µM
HCT-116 colon
  GI50: 3.56 µM
  TGI: 17 µM
HCT-15 colon
  GI50: 3.37 µM
  TGI: 17.2 µM
HL-60(TB) leukemia
  GI50: 3.2 µM
  TGI: 12.1 µM
HOP-62 NSCLC
  GI50: 7.05 µM
  TGI: 31.5 µM
HOP-92 NSCLC
  GI50: 4.78 µM
  TGI: 41.5 µM
HS 578T breast
  GI50: 4.52 µM
  TGI: > 65.2 µM
HT29 colon
  GI50: 10.9 µM
  TGI: 47.5 µM
IGROV1 ovarian
  GI50: 4.78 µM
  TGI: 41.9 µM
K-562 leukemia
  GI50: 3.86 µM
  TGI: > 37.9 µM
KM12 colon
  GI50: 5.54 µM
  TGI: 29.4 µM
LOX IMVI melanoma
  GI50: 4.52 µM
  TGI: 22.9 µM
M14 melanoma
  GI50: 3.96 µM
  TGI: 18.2 µM
MALME-3M melanoma
  GI50: 9.93 µM
  TGI: 35.5 µM
MCF7 breast
  GI50: 3.27 µM
  TGI: 14 µM
MDA-MB-231 breast
  GI50: 4.34 µM
  TGI: 34.4 µM
MDA-MB-435
  GI50: 5.76 µM
  TGI: > 53 µM
MOLT-4 leukemia
  GI50: 3.13 µM
  TGI: > 25.5 µM
NCI-H226 lung
  GI50: 10.1 µM
  TGI: 35.7 µM
NCI-H23 lung
  GI50: 4.64 µM
  TGI: > 34.7 µM
NCI-H460 lung
  GI50: 4.01 µM
  TGI: 18.9 µM
NCI-H522 lung
  GI50: 4.11 µM
  TGI: 15.1 µM
NCI/ADR-RES ovarian
  GI50: 2.69 µM
  TGI: > 27 µM
OVCAR-3 ovarian
  GI50: 3.49 µM
  TGI: > 62.7 µM
OVCAR-4 ovarian
  GI50: 3.29 µM
  TGI: > 33.7 µM
OVCAR-5 ovarian
  GI50: 11.9 µM
  TGI: 42.2 µM
OVCAR-8 ovarian
  GI50: 3.91 µM
  TGI: > 61.2 µM
PC-3 prostate
  GI50: 5.65 µM
  TGI: > 49.7 µM
RPMI-8226 leukemia
  GI50: 2.75 µM
  TGI: 8.33 µM
RXF 393 renal
  GI50: 3.43 µM
  TGI: 15.8 µM
SF-268 CNS
  GI50: 5.26 µM
  TGI: > 74.1 µM
SF-295 CNS
  GI50: 5.2 µM
  TGI: 45.2 µM
SF-539 CNS
  GI50: 4.24 µM
  TGI: 21.1 µM
SK-MEL-2 melanoma
  GI50: 4.57 µM
  TGI: 29.8 µM
SK-MEL-28 melanoma
  GI50: 4.87 µM
  TGI: 22.5 µM
SK-MEL-5 melanoma
  GI50: 3.78 µM
  TGI: 13.4 µM
SK-OV-3 ovarian
  GI50: 11.8 µM
  TGI: 87.5 µM
SN12C renal
  GI50: 4.97 µM
  TGI: 28.2 µM
SNB-19 CNS
  GI50: 5.71 µM
  TGI: > 65 µM
SNB-75 CNS
  GI50: 6.08 µM
  TGI: > 28.3 µM
SR leukemia
  GI50: 2.78 µM
  TGI: > 32.2 µM
SW-620 colon
  GI50: 4.03 µM
  TGI: 19.3 µM
T-47D breast
  GI50: 4.08 µM
  TGI: > 40.9 µM
TK-10 renal
  GI50: 15 µM
  TGI: > 100 µM
U251 CNS
  GI50: 4.76 µM
  TGI: > 57.7 µM
UACC-257 melanoma
  GI50: 7.64 µM
  TGI: 25.3 µM
UACC-62 melanoma
  GI50: 4.22 µM
  TGI: 14.4 µM
UO-31 renal
  GI50: 4.6 µM
  TGI: > 35.8 µM
